Results reported in patent publication US11879012B2, “Method of modulating cell proliferation” (METRO NORTH HOSPITAL AND HEALTH SERVICE, priority 2018, dated 2024).

Tested on: corneal-limbal epithelial cells
Experiment: MTT conversion / proliferation of primary corneal-limbal epithelial cells
Assay type: cell-based, human
Settings: 40 μM Y27632 alone; FIG. 5D
Source text: Cultures of non-transformed human corneal epithelial cells were established from either enzymatically-dissociated sample of corneal-scleral tissue or from pieces of intact corneal limbus seeded into culture dishes (i.e., explant method). In either case, corneal tissue from cadaveric donors was used. Each tissue sample was acquired with consent and ethics approval our HREC Approval No. 0800000807) in the form of either surgical cut-offs or intact corneas that had been rejected by the eye bank (e.g., poor endothelial cell density).
For dissociated cultures, washed tissue samples were cut into quarters before being incubated for 1 hour at 37° C. in 0.25% (w/v) Dispase solution (Life Technologies). Epithelial tissue was subsequently harvested from the limbus and peripheral cornea by scraping with a pipette tip, then dissociated by digestion in 0.05% Trypsin/0.02% EDTA (Sigma) for 5 minutes at 37° C. The resulting cell suspension was washed and resuspended in complete culture medium. […]
To initiate cultures from whole tissue, each well of a 6-well culture plate (approximately 6×10 cm^2) was initially filled with 2 mL, of 100% FBS and incubated for at least 30 minutes at 37° C. […] Over subsequent days, each p0 culture was routinely monitored for evidence of epithelial outgrowth until a confluent sheet measuring approximately 2-3 cm^2 had been achieved (approximately 1-2 weeks). […]

C[C@@H](N)[C@H]1CC[C@H](C(=O)Nc2ccncc2)CC1 [Y27632]
MTT conversion (cell proliferation): dose-dependent increase in MTT conversion
